pIC50: −log10 of the molar value.
Tests used:
[1] = molecular target: T1, presenilin 1 (Mus musculus, UniProt P49769); assay: In vivo brain PS1 levels in mice after compound A, western blot; design: species or system C57BL6 mice; settings: 30 mg/kg oral once daily 4 days
T1 construct: brain levels of mature PS1 remain elevated for well after compound A and α-CTFs have returned to baseline levels; The mature form of presenlin is a heterodimer consisting of a ˜30 kDa NH2-terminal fragment (NTF) and a ˜20 kDa C-terminal fragment; from tissue; host or cells: brain membrane fraction of C57BL6 mice
Description: (§1) Mice were treated via gavage once daily for […] with 30 mg/Kg of compound A and then necropsied 0-48 hours after the final dose was administered.
(§2) C57BL6 mice were treated by oral gavage of 30 mg/kg compound A (0.5% methylcellulose carrier) once a day for 4 consecutive days. After the final dose, nine groups of animals (5 animals per group) were sacrificed at different time points ranging from 15 min. post final dose up to 48 hours post final dose (plus an untreated group). Blood was collected and mouse brain samples were minced and homogenized in water using a FastPrep homogenizer (Thermo Scientific). Plasma and brain homogenates were extracted with acetonitrile for measurement of compound A concentrations by LCMS. For biochemical analysis, brains were homogenized (250 mM sucrose, 50 mM Tris, pH 7.5, 1 mM EDTA plus protease inhibitors) and separated into a membrane fraction and soluble fraction by ultracentrifugation at 100,000 g for 1 hr. The membrane fraction was solubilized in RIPA buffer (1% TX100, 0.5% Taurodexoycholate, 0.1% SDS in TBS+PI) and clarified by centrifugation. Total protein was measured by BCA (Pierce) and 30 ug of each sample was separated by SDS/PAGE and analyzed by Western blot. The following antibodies were used: PS1 ( 1/1000 Abcam no. Ab10281); calnexin ( 1/1000 Abcam no. Ab10286) and APP-CTF ( 1/1000 Anaspec 54096). Western blots were developed using an alkaline phosphatase anti-rabbit secondary and an alkaline phosphatase chemiluminescent substrate. Chemiluminescence data was imaged using an Alpha Innotech FluorChem Q imager and band quantification was carried out using densitometry software AlphaViewQ (Alpha Innotech). […] Abeta40 was quantified from diethylamine extracts using BetaMark Abeta40 ELISA kit (Covance); Abeta42 was quantified from diethylamine extracts using the High Sensitivity Abeta42 ELISA kit (Wako).

[2] = system: γ-secretase; assay: In vivo brain α-CTF, Aβ40 and Aβ42 levels in mice after compound A; design: species or system C57BL6 mice
Description: as §1, §2

[3] = Brain concentration of compound A by LCMS; format: in vivo; settings: C57BL6, mouse, oral, 30 mg/kg, mice, read-out: brain t1/2 (converted)
Description: as §2, with “The membrane fraction was solubilized in RIPA buffer (1% TX100, 0.5% Taurodexoycholate, 0.1% SDS in TBS+PI) and clarified by centrifugation.” left out, “The following antibodies were used: PS1 ( 1/1000 Abcam no. Ab10281); calnexin ( 1/1000 Abcam no. Ab10286) and APP-CTF ( 1/1000 Anaspec 54096). Western blots were developed using an alkaline phosphatase anti-rabbit secondary and an alkaline phosphatase chemiluminescent substrate.” left out

[4] = molecular target: γ-secretase (Homo sapiens, UniProt P49768); assay: γ-secretase inhibitory IC50 of compound A; settings: γ-secretase inhibition, compared with brain levels

brain presenilin levels above untreated levels ([1]; at 24 hours): 50%
increase of brain presenilin levels ([1]; within 1 hour of washout): 50%
maximum increase of brain presenilin levels ([1]; within 8 hours of washout): 2 fold
half-life [3]: ~3.5 h
pIC50 [4]: ~7.22
Compound: C[C@H](OC(=O)NCC(F)(F)C(F)(F)F)C(=O)N[C@@H]1C(=O)N(C)c2ccccc2-c2ccccc21 [Compound A, (S)-1-(((S)-5-methyl-6-oxo-6,7-dihydro-5H-dibenzo[b,d]azepin-7-yl)amino)-1-oxopropan-2-yl (2,2,3,3,3-pentafluoropropyl)carbamate]
reduction of brain Aβ42 levels relative to untreated controls ([2]; 30 mg/kg oral once daily 4 days, 48 hrs after the final dose): 40%
Aβ42/Aβ40 ratio in brain ([2]; 30 mg/kg oral once daily 4 days, washout): reduced
time after final dose at which CTF levels begin to drop ([2]; 30 mg/kg oral, brain α-CTFs): 2 h
